In brackets after ≈: the same amount, converted by molar mass.
Assays:
D54MG xenografts = assay: Subcutaneous human glioma xenograft model, tumor growth; format: in vivo, athymic nude mice
Procedure: (§1) Treatment was started at the time of established tumor growth (Day 0 equal to 14 days after tumor cell injection). Animals were infected i.t. with 1×10^8 TCID50 AdbCDwt or AdbCD-D314A on Days 0, 7, and 14, and then irradiated with 2 Gy on Days 4, 7 and 10. 5-FC was injected i.p. at 500 mg/kg on Days 0 to 4, 7 to 11, and 14 to 18. Data points represent the mean change in tumor surface area relative to Day 0 for each group of animals.
as §1, with “to 17” for “to 14”, “TCID50” for “TCID50 AdbCDwt or”, “and” for “and then”, “with 5” for “with 2”
To assess anti-tumor effects on established solid tumors, D54MG glioma cells (2×10^7) were injected s.c. into female athymic nude mice. Treatment was started 14 days post-tumor cell injection at the time of established tumor growth (tumors were 6-8 mm in diameter), noted as Day 0. […] Tumor size was monitored twice a week with Vernier calipers. Tumor surface area (length×width in mm^2) was calculated for each group of 10 mice and plotted as a percentage change over time relative to the mean size on Day 0 for each group.

[1] = test system: Intracranial U87MG Human Gliomas; assay: Survival, intracranial glioma, intratumoral Ad and systemic 5-FC; format: in vivo, SCID mice; conditions: for Survival 20% / Survival Median: Saline (no virus) + 5-FC
Procedure: U87MG and D54MG cells (5×10^5) were stereotactically injected into the right frontal cortex of SCID mice. Tumors were established for 5 days before intratumoral injection of AdCMVCD (10^8 or 10^9 pfu/mouse). Mice were then treated IP with 5-FC (500 mg/kg bid) on days 2-9 post infection and monitored for survival. Kaplan-Meier survival curves and median and 20% survival values were calculated by standard methods.
U87MG cells (5×10^5), the stringent glioma model, were stereotactically injected into the right frontal cortex of SCID mice. Tumors were established for 5 days before intratumoral injection of AdE1ACD or AdCMVCD (10^8 or 10^9 pfu/mouse). Mice were then treated IP with 5-FC (500 mg/kg bid) on days 2-9 post infection and monitored for survival. Kaplan-Meier survival curves and median and 20% survival values were calculated by standard methods.

[2] = test system: human pancreatic cancer cells; conditions: Uninfected cells; 5-FC at 764 μg/ml
Procedure: To measure the cytotoxicity of 5-FU and 5-FC, glioma cells or pancreatic cancer cells were plated into 96-well tissue culture plates at 5×10^3 cells/well, and allowed to adhere overnight. Next day, serial dilutions of 5-FU or 5-FC were added directly to cells. Cells were incubated for 5 days, and relative cell density was determined using a crystal violet staining assay. Cell culture medium was removed and surviving cells were then fixed and stained with 2% (w/v) crystal violet (Sigma-Aldrich) in 70% ethanol for 3 h at room temperature. The plates were washed extensively, air-dried and optical density was measured at 570 nm using a V Max plate reader (Molecular Devices Corporation, Sunnyvale Calif.). Fractional cell survival at each drug concentration was calculated as the ratio of absorbance at 570 nm of cells incubated in the presence versus absence of drug, corrected for background absorbance of media alone. Fractional cell survival data were plotted against drug concentration and IC50 values extrapolated by piecewise linear regression as the concentration of drug producing a 50% reduction in corrected absorbance.

CFPAC-1 = assay: 5-FU cytotoxicity IC50; format: cell-based; conditions: Homo sapiens
Procedure: (§2) A two factor analysis of variance with interaction was used to assess the effects of AdCMVLuc and AdCMVLuc+Fab-FGF2 MOI on RLU for each of the cell types individually. Due to the nonconstant variability, the logarithm of RLU was analyzed. This transformation stabilized the variability and normalized the errors. A three-factor with interaction analysis of variance was used to assess the effects of MOI, virus type and day on the number of cells per well. Due to the nonconstant variability, the logarithm of cells per well was analyzed. This transformation stabilized the variability and normalized the errors. Global comparisons were done at the 5% significance level and all pairwise comparisons were done at the 1% significance level. A nonlinear model was used to calculate the 5-FU IC50 for each cell type individually. The nonlinear model is given by: number of cells=trough+(peak-trough)/(1+dose/IC50). To assess the correlation of the number of cells per well with 5-FU production, a simple linear regression was done modeling the logarithm of cells per well as a function of percent 5-FU production for each cell and virus type combination individually. Kaplan-Meier estimates on the difference in time to tumor size doubling was used to assess the difference in tumor growth in animals treated with AdCMVCD or AdCMVCD+Fab′-FGF2 plus 5-FC and radiation.
(§3) To determine the relative sensitivity of several hepatobiliary cell lines to 5-FU, the concentration of 5-FU which inhibited cellular growth by 50% (IC50) was determined. Characterization of this information is particularly relevant to the CD/5-FC toxin gene prodrug system, as 5-FU is the toxic metabolic product of cytosine deaminase enzymatic conversion of 5-FC.

ASPC-1 = assay: 5-FU cytotoxicity IC50; format: cell-based; conditions: Homo sapiens, ASPC1
Procedure: as §2, §3

SK-ChA-1 = assay: 5-FU cytotoxicity IC50; format: cell-based; conditions: Homo sapiens
Procedure: as §2, §3

BXPC-3 = assay: 5-FU cytotoxicity IC50; format: cell-based; conditions: Homo sapiens
Procedure: as §2, §3

[3] = test system: human cell lines derived from gliomas, prostate, colon, and pancreatic carcinomas; assay: 5-FU toxicity, panel of cell lines; format: cell-based; conditions: range over 12 cell lines
Procedure: Tumor cells (5×10^4) were plated in 96 well plates and allowed to adhere overnight. Cells were then incubated continuously in the presence of increasing concentrations of 5-FU (0-200 μg/ml) and assayed for toxicity using an MTS assay (Promega, Madison Wis.) after 5-days. ICx values were calculated as previously described. U251MG glioma cells were as sensitive to 5-FU as LS174T and WiDR colon carcinoma cells, while D54MG, U87MG and U118MG glioma cells and AsPC-1 pancreatic carcinoma cells were 3-fold less sensitive (Table 2).

Compound	mean time to tumor doubling (D54MG xenografts; 5-FC alone)	mean time to tumor doubling (D54MG xenografts; 5-FC plus radiation (3×2 Gy))	Survival 20% ([1]; Table 6)	Survival Median ([1]; Table 6)	Survival 20% ([1]; Table 8)	Survival Median ([1]; Table 8)	Survival 20% ([1]; Table 11)	Survival Median ([1]; Table 11)	median survival ([1]; U87MG, no virus/5-FC)	cytotoxicity [2]	IC50 (CFPAC-1)	IC50 (ASPC-1)	IC50 (SK-ChA-1)	IC50 (BXPC-3)	IC50 [3]
Nc1nc(=O)[nH]cc1F [5-FC, 5-fluorocytosine]	13 days	15 days	61	50	34	34	60	57	57 days	no detectable cytotoxicity					
O=c1[nH]cc(F)c(=O)[nH]1 [5-FU, 5-fluorouracil]											0.089 µg/mL	0.635 µg/mL	0.115 µg/mL	0.134 µg/mL	0.04 to 4.97 µg/mL (≈ 0.308 to 38.2 µM)
